Test [1] concerns the target T1, 5-hydroxytryptamine receptor 7 (Homo sapiens, UniProt P34969). Briefly: Displacement of [3H]D-lysergic acid diethylamide from 5HT7R (unknown origin) expressed in HEK293 cell membranes incubated for 1.5 hrs in absence of light by liquid scintillation counting.
Test [2] has as its target T1, 5-hydroxytryptamine receptor 7. Briefly: Agonist activity at human 5-HT7R expressed in HEK293 cells assessed as induction of cAMP levels at 10 uM treated for 10 mins measured after 30 mins by D2-dye based fluorescence assay relative to serotonin. In kind it is functional, cell-based.
The target is the same in test [3]. Kind of test: Antagonist activity at human 5-HT7R expressed in HEK293 cells assessed as inhibition of serotonin stimulated cAMP levels at 10 uM preincubated for 10 mins followed by serotonin stimulation after 30 mins by D2-dye based fluorescence assay. In kind it is functional, cell-based.
The target is the same in test [4]. Kind of test: Agonist activity at human 5-HT7R expressed in HEK293 cells assessed as induction of cAMP levels treated for 10 mins measured after 30 mins by D2-dye based fluorescence assay. In kind it is functional, cell-based.
For test [5] the target is unchanged. Briefly: Antagonist activity at human 5-HT7R expressed in HEK293 cells assessed as inhibition of serotonin stimulated-cAMP levels preincubated for 10 mins followed by serotonin stimulation after 30 mins by D2-dye based fluorescence assay. In kind it is functional, cell-based.
Test [6] shares this target. Briefly: Antagonist activity at human 5-HT7R expressed in HEK293 cells assessed as inhibition of serotonin stimulated-cAMP levels at 100 uM preincubated for 10 mins followed by serotonin stimulation after 30 mins by D2-dye based fluorescence assay. In kind it is functional, cell-based.
Test [7] has the same target. Briefly: Displacement of [3H]D-lysergic acid diethylamide from 5HT7R (unknown origin) expressed in CHO-K1 cell membranes incubated for 1.5 hrs in absence of light by liquid scintillation counting.

Active and inactive are the calls of the source. No cut-off for these calls is given here.

T1 sequence (P34969 whole entry): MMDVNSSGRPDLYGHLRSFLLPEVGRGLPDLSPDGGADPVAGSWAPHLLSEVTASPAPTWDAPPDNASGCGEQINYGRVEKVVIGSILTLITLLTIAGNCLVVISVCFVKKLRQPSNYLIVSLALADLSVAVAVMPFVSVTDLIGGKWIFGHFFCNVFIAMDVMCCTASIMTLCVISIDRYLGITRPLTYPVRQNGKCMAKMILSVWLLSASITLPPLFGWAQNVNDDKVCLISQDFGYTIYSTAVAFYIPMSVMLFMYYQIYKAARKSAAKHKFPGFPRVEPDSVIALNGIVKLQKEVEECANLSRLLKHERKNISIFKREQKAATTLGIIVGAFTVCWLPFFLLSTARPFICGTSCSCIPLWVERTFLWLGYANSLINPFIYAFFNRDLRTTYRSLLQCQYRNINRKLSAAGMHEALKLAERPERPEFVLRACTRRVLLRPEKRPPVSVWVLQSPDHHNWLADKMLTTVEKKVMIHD

`CNCc1ccc(C)c(-c2ccccc2OC)c1`: in test [1], the Ki came to 15 nM. The Emax in test [2] stood at 55.5%. Further, the Imax in test [3] turned out to be 2.49%. Besides, in test [4], the EC50 is 3200 nM.

In test [1], `COc1ccccc1-c1cc(CN2CCN(c3ccccc3OC)CC2)ccc1C` gave a Ki of 18 nM. Moreover, in test [2], the Emax was 14%. Also, the Imax in test [3] came out at 69.3%. Moreover, the IC50 in test [5] turned out to be 6350 nM. In addition, the inhibition entry in test [6] was “Active”.

In turn, `CNCc1cccc(-c2ccccc2OC)c1` showed a Ki in test [1] of 226 nM. Moreover, the Emax in test [2] was determined as 24.5%. In test [3], the Imax was -0.87%.

Turning to `COc1ccccc1-c1cc(CN2CCC(C)CC2)cc2c1OCO2`, the affinity in test [1], expressed as Ki, was 691 nM. In addition, the Emax in test [2] stood at 7.6%. For the same molecule, the Imax in test [3] stood at 15.6%.

As for `COc1ccccc1-c1cc(CN2CCC(C)CC2)ccc1OC`, in test [1], the Ki was determined as 3060 nM. Moreover, in test [2], the Emax was -1.14%. Further, the Imax in test [3] amounted to 7.74%.

For `COc1ccccc1-c1cc(CN2CCN(c3ccccc3OC)CC2)ccc1OC`, in test [1], the Ki turned out to be 79 nM. The Emax in test [2] is -2.42%. The Imax in test [3] was 91.6%. Also, in test [5], the IC50 stood at 5570 nM. In addition, in test [6], the inhibition entry is “Active”.

In test [1], `COc1ccccc1-c1cc(CN2CCC(C)CC2)ccc1C` showed a Ki of 1120 nM. Moreover, the Emax in test [2] amounted to 2.53%. In addition, the Imax in test [3] was determined as 29%.

The molecule `COc1ccccc1-c1cc(CN(C)C)ccc1C` displayed a Ki in test [1] of 23 nM. The Emax in test [2] came out at 33.3%. In addition, the Imax in test [3] is 6.61%.

The molecule `CNCc1ccc(OC)c(-c2ccccc2OC)c1` showed a Ki in test [1] of 648 nM. In addition, the Emax in test [2] amounted to 11%. The Imax in test [3] was found to be 2.25%.

As to `COc1ccccc1-c1cc(CN(C)C)cc2c1OCO2`, in test [1], the Ki is 772 nM. For the same molecule, in test [2], the Emax was determined as 3.97%. Moreover, the Imax in test [3] was found to be 13.5%.

For the molecule `CC1CCN(CC[C@H]2CCCN2S(=O)(=O)c2cccc(O)c2)CC1`, the Imax in test [3] came to 100%.

Molecule `COc1ccccc1-c1cccc(CN(C)C)c1` yielded a Ki in test [1] of 126 nM. Also, the Emax in test [2] was determined as 15.4%. The Imax in test [3] is 40.8%.

`COc1ccccc1-c1cc(CN2CCC(C)CC2)ccc1Cl` had a Ki in test [1] of 389 nM. The Emax in test [2] is -14.4%. In test [3], the Imax was determined as 52.3%.

As to `COc1ccccc1-c1cccc(CN2CCC(C)CC2)c1`, the Ki in test [1] amounted to 1040 nM. Further, the Emax in test [2] turned out to be 8.59%. For the same molecule, the Imax in test [3] is 39%.

`COc1ccccc1-c1cc(CN2CCN(c3ccccc3OC)CC2)ccc1Cl` came in with a Ki in test [1] of 73 nM. Further, the Emax in test [2] is -7.72%. Further, the Imax in test [3] is 91%. Further, in test [5], the IC50 turned out to be 23100 nM. The inhibition entry in test [6] is “Active”.

`COc1ccccc1-c1cc(CN(C)C)ccc1OC` registered a Ki in test [1] of 1020 nM. For the same molecule, the Emax in test [2] turned out to be 28.8%. The Imax in test [3] worked out at 4.54%.

In test [7], `COc1ccccc1-c1cccc(CN2CCN(c3ccccc3OC)CC2)c1` yielded an inhibitory constant (Ki) of 15 nM.

In test [1], `COc1ccccc1-c1cc(CN2CCN(c3ccccc3OC)CC2)cc2c1OCO2` registered a Ki of 34 nM. Moreover, in test [2], the Emax is -1.56%. In addition, the Imax in test [3] was 93.7%. Also, the IC50 in test [5] came to 19800 nM. In test [6], the inhibition result was “Active”.

In test [1], `CNCc1cc2c(c(-c3ccccc3OC)c1)OCO2` gave an inhibition constant (Ki) of 1480 nM. For the same molecule, the Emax in test [2] amounted to 13.6%. For the same molecule, the Imax in test [3] worked out at 8.4%.

The molecule `COc1ccccc1-c1cc(CN(C)C)ccc1Cl` had an inhibition constant (Ki) in test [1] of 18 nM. In test [2], the Emax stood at 27.6%. The Imax in test [3] stood at 10.3%.

In turn, `CNCc1ccc(Cl)c(-c2ccccc2OC)c1` yielded a Ki in test [1] of 5.2 nM. Further, in test [2], the Emax is 66.8%. Besides, the Imax in test [3] was determined as 4.66%. Further, in test [4], the EC50 was 550 nM.
